Experiment [1] has as its system Mycobacterium tuberculosis. The experiment is described as follows: Antitubercular activity against Mycobacterium tuberculosis H37Rv by microdilution resazurin assay. It is filed as functional.
Experiment [2] concerns Mycobacterium tuberculosis. The experiment is described as follows: Antitubercular activity against Mycobacterium tuberculosis H37Rv at 5 ug/disk by microdilution resazurin assay. In kind it is functional, organism-based. In general terms: Dilution methods test growth across graded concentrations, often in twofold steps.
In experiment [3] the test system is Mycobacterium tuberculosis. The experiment is described as follows: Antitubercular activity against Mycobacterium tuberculosis H37Rv at 30 ug/disk by microdilution resazurin assay. It is filed as functional, organism-based.

Molecules are shown by their SMILES. ≈ marks a conversion by molar mass, not a printed value. Calls of active or inactive are those of the source. No cut-off for these calls is given here.

A word on the MIC: it is the lowest concentration that inhibits growth of the organism. As for `CC1CCN(Cn2nc(-c3ccccn3)oc2=O)CC1`, inhibition of growth in experiment [1] (MIC) required 4 µg/mL (≈ 14.6 µM). Same read-out and setting: then `O=c1oc(-c2cccnc2)nn1CN1CCCCC1`, with 32 µg/mL (≈ 123 µM); and `O=c1[nH]nc(-c2cnccn2)o1`, with greater than 64 µg/mL.

For the compound `CC1CCCCN1Cn1nc(-c2cccnc2)oc1=O` (configuration not stated), in experiment [1], the MIC was 32 µg/mL (≈ 117 µM).

`CC1CCCN(Cn2nc(-c3ccccc3)oc2=O)C1` (configuration not stated): the minimum inhibitory concentration (MIC) in experiment [1] worked out at 32 µg/mL (≈ 117 µM).

Compound `CN(Cc1ccccc1F)Cn1nc(-c2ccncc2)oc1=O` came in with an MIC in experiment [1] of 4 µg/mL (≈ 12.7 µM). On the same count and under the same terms, then `CN(Cc1cccc(Cl)c1)Cn1nc(-c2ccncc2)oc1=O`, with 8 µg/mL (≈ 24.2 µM). In experiment [1], `NNC(=O)c1ccncc1` [ISONIAZID] displayed an MIC of 0.5 µg/mL (≈ 3.65 µM). Moreover, the result in experiment [2] was Active.

In turn, `CC1CCCN(Cn2nc(-c3cccnc3)oc2=O)C1` (configuration not stated) displayed a minimal inhibitory concentration (MIC) in experiment [1] of 32 µg/mL (≈ 117 µM).

For the compound `O=c1[nH]nc(-c2cccnc2)o1`, the MIC in experiment [1] amounted to 32 µg/mL (≈ 196 µM).

In experiment [1], `CN(Cc1ccc(F)cc1)Cn1nc(-c2ccncc2)oc1=O` gave an MIC of 4 µg/mL (≈ 12.7 µM). This MIC is about 8-fold lower than that of the compound before.

`CC1CCN(Cn2nc(-c3cnccn3)oc2=O)CC1` returned an MIC in experiment [1] greater than 64 µg/mL. Same read-out and setting: the value for `CN(Cc1ccc(Cl)cc1)Cn1nc(-c2ccncc2)oc1=O` was 8 µg/mL (≈ 24.2 µM); that for `O=c1oc(-c2ccccn2)nn1CN1CCCCC1` was 4 µg/mL (≈ 15.4 µM); that for `O=c1oc(-c2cnccn2)nn1CN1CCCCC1` was greater than 64 µg/mL.

For the compound `CC1CCCCN1Cn1nc(-c2ccccn2)oc1=O` (configuration not stated), the MIC in experiment [1] amounted to 4 µg/mL (≈ 14.6 µM).

On to `CN(Cc1cccc(F)c1)Cn1nc(-c2ccncc2)oc1=O`, for which inhibition of growth in experiment [1] (MIC) required 8 µg/mL (≈ 25.5 µM). The same measure, in the same setting: then `O=c1[nH]nc(-c2ccncc2)o1` [NEOVADRINE], with 4 µg/mL (≈ 24.5 µM); and `CC1CCN(Cn2nc(-c3ccccc3)oc2=O)CC1`, with 32 µg/mL (≈ 117 µM).

In experiment [1], `CN(Cc1ccccc1)Cn1nc(-c2ccncc2)oc1=O` yielded an MIC of 8 µg/mL (≈ 27 µM). With `CC1CCCN(Cn2nc(-c3cnccn3)oc2=O)C1` (configuration not stated), the MIC in experiment [1] is greater than 64 µg/mL. Still for that read-out and setting: the value for `CN(Cc1ccccc1Cl)Cn1nc(-c2ccncc2)oc1=O` was 8 µg/mL (≈ 24.2 µM); that for `O=c1[nH]nc(-c2ccccn2)o1` was 4 µg/mL (≈ 24.5 µM); that for `O=c1[nH]nc(-c2ccccc2)o1` was 32 µg/mL (≈ 197 µM). Still for that read-out and setting: the value for `CC1CCN(Cn2nc(-c3cccnc3)oc2=O)CC1` was greater than 64 µg/mL; that for `CN(Cc1ccc(Br)cc1)Cn1nc(-c2ccncc2)oc1=O` was 4 µg/mL (≈ 10.7 µM); that for `Cc1ccc(CN(C)Cn2nc(-c3ccncc3)oc2=O)cc1` was 4 µg/mL (≈ 12.9 µM). In the case of `CC1CCCCN1Cn1nc(-c2ccccc2)oc1=O` (configuration not stated), 32 µg/mL (≈ 117 µM) was the least that counted as inhibitory in experiment [1] (MIC). Compared with the last compound, the MIC is about 8-fold higher.

Turning to `CN(Cc1cccc2ccccc12)Cn1nc(-c2ccncc2)oc1=O`, in experiment [1], the lowest concentration to inhibit growth (MIC) was 8 µg/mL (≈ 23.1 µM).

On to `CO[C@H]1/C=C/O[C@@]2(C)Oc3c(C)c(O)c4c(O)c(c(/C=N/N5CCN(C)CC5)c(O)c4c3C2=O)NC(=O)/C(C)=C\C=C\[C@H](C)[C@H](O)[C@@H](C)[C@@H](O)[C@@H](C)[C@H](OC(C)=O)[C@@H]1C` [RIFAMPIN], for which the result in experiment [3] was Active. 1 µg/mL (≈ 1.22 µM) was the least that counted as inhibitory in experiment [1] (MIC). As for `CC1CCCN(Cn2nc(-c3ccccn3)oc2=O)C1` (configuration not stated), in experiment [1], the MIC was 4 µg/mL (≈ 14.6 µM).

In turn, `O=c1oc(-c2ccccc2)nn1CN1CCCCC1` came in with an MIC in experiment [1] of 32 µg/mL (≈ 123 µM). Same read-out and setting: the value for `CN(Cc1ccccc1Br)Cn1nc(-c2ccncc2)oc1=O` was 8 µg/mL (≈ 21.3 µM). The same measure, in the same setting: the value for `CN(Cc1ccc(Cl)cc1Cl)Cn1nc(-c2ccncc2)oc1=O` was 8 µg/mL (≈ 21.9 µM).

The compound `CN(Cc1cccc(Br)c1)Cn1nc(-c2ccncc2)oc1=O` returned an MIC in experiment [1] of 4 µg/mL (≈ 10.7 µM).
